Source: patent US20220133753A1, “COMPOSITIONS AND METHODS USEFUL FOR TREATING DISEASES CHARACTERIZED BY INSUFFICIENT PANTOTHENATE KINASE ACTIVITY” (Comet Therapeutics, Inc., priority 2016, published 2022)
Entries after “also recorded” stand apart in the source; their conditions may differ.

Experiments:
HEK293 cells = test: HoPan treatment of mammalian HEK293 cells in combination with CoA or 4′-phosphopantetheine; type: cell-based, human; settings: HoPan treated HEK293 cells, compound added to the medium
Protocol: HoPan treatment of mammalian HEK293 Cells in combination with CoA and 4′-phosphopantetheine treatment: HEK293 cells were maintained in dMEM (Invitrogen) supplemented with 10% fetal calf serum (Gibco) and antibiotics (penicillin/streptomycin, Invitrogen). For HoPan treatment, cells were cultured in custom made dMEM without vitamin B5 (Thermo Scientific) supplemented with dialyzed FCS (Thermo Scientific). CoA or PPanSH was added to HEK293 cells for the final concentration of 25 uM, either in the presence or absence of HoPan (0.5 mM) for 4 days, followed by analysis for phenotype and rescue efficiency of CoA and PPanSH.
Western blot analysis and Antibodies: For Western blot analysis, cells were collected and washed with phosphate buffer saline (PBS), followed by centrifugation. The cells were lysed and sonicated in 1X Laemmli Sample Buffer and boiled for 5 min with 5% β-mercaptoethanol (Sigma). Protein content was determined using DC protein assay (BioRad). Equal amounts of protein were loaded on a 10 or 12.5% SDS-PAGE gel, transferred onto PVDF membranes and blocked with 5% milk in PBS/0.1% Tween, followed by overnight incubation with primary antibodies. The primary antibodies used were: rabbit-anti dPANK/fbl, 1:4000 Eurogentec custom made as described previously5, mouse anti-tubulin (Sigma Aldrich Cat no: T5168, 1:5000), anti-acetyl-Histone3 (Active Motif Cat no: 39139, 1:2000), anti GAPDH (Fitzgerald Cat no: 10R-G109a, 1:10000), rabbit anti COASY (Abcam Cat no: AB129012, 1:1000). Appropriate HRP-conjugated secondary antibodies (Amersham) were used and detection was performed using enhanced chemi-luminescence (Pierce cat nog: 32106) and Amersham hyperfilm (GE Healthcare). Band intensities were quantified with Image-studio software.

[1] = test system: Drosophila w1118 control fly line; test: Drosophila HoPan toxicity and CoA rescue experiment (eclosion); type: in vivo; settings: CoA added to the food of the larvae
Text: Drosophila HoPan Toxicity and CoA Rescue Experiment: One week old w1118 flies (in the ratio 10 females and 5 males) were kept in vials containing standard fly food with or without HoPan and CoA at indicated concentrations. The flies were allowed to lay eggs for 2 days, after which the adults were discarded. The resulting offspring were allowed to develop. The numbers of flies which eclosed were counted to evaluate HoPan toxicity and CoA rescue efficiency.

[2] = Conversion of CoA in mouse serum by HPLC; type: in vitro ADME
Text: The conversion of CoA to 4′-phosphopantetheine was further investigated in mouse serum and in human serum.

[3] = test system: homozygous dPANK/fbl1 and dPANK/fblnull mutants; test: Drosophila dPANK/fbl mutants, lifespan and development with CoA or Vitamin B5 in the food; type: in vivo, Drosophila melanogaster; settings: CoA added to the food
Protocol: (§1) Drosophila Maintenance and Crosses: Drosophila melanogaster stocks/crosses were raised on standard cornmeal agar fly food (containing water, agar 17 g/L, sugar 54 g/L, yeast extract 26 g/L and nipagin 1.3 g/L) at 25° C. The stocks were either obtained from the Bloomington Stock Centre (Indiana University, USA), VDRC (Vienna Drosophila RNAi Collection, Vienna, Austria) or from the Exelixis Collection (Harvard Medical School) and rebalanced to generate eGFP-positive balancers. The stocks used were: w1118; dPANK/fbl1 hypomorph5,6; dPANK/fblnull (y[1] w[*]; Mi{y[+mDint2]=MIC}fbl[MI04001]/TM3, Sb[1] Ser[1], Bloomington 36941); dPPCDC mutant (w[1118], PBac{w[+mC]=WH}Ppcdc[f00839]/CyO, Bloomington 18377); UAS-dPPCDCRNAi line (VDRC 104495); dCOASY mutant (PBac{RB}Ppat-Dpck[e00492], Exelixis). The UAS-RNAi constructs were expressed ubiquitously using the Actin-Gal4 drivers (y[1] w[*]; P{w[+mC]=Act5C-GAL4}25FO1/CyO, y[+], Bloomington 4414). […]
(§2) Drosophila Life Span: One-day old adults of Drosophila homozygous mutants or RNAi-constructs expressing lines, were collected with appropriate controls and were kept on standard fly food at 25° C. with or without CoA or Vitamin B5 (Sigma) at necessary concentration (50 ul added on top of the fly food and dried). The flies were counted every 12-24 hrs and flipped to new fly food vials with or without CoA or Vitamin B5.

[4] = test system: homozygous dPPCDC mutants and dPPCDC RNAi expressing flies; test: Drosophila dPPCDC mutant and dPPCDC RNAi flies, development, lifespan and fertility with CoA or Vitamin B5; type: in vivo, Drosophila melanogaster
Protocol: as §1, §2
Drosophila Ovary Rescue Experiment: UAS-dPPCDC RNAi constructs were ubiquitously expressed under the control of Actin-Gal4. […] The vials (or plates) from the crosses (with eggs that were being laid during the 4 day period of CoA rescue) were kept for another 10 days and offspring numbers were counted after eclosion.
Drosophila Ovary dissection and staining: Drosophila ovaries were collected in cold PBS and fixed in 4% formaldehyde (from methanol-free 16% Formaldehyde Solution, Thermo Scientific) for 45 min at RT. […] Finally the samples were mounted in 80% glycerol and analyzed on a Zeiss-LSM780 NLO confocal microscope with Zeiss Zen software. […]

[5] = test system: homozygous dCOASY mutants; test: Drosophila dCOASY mutants, larval development with CoA or Vitamin B5; type: in vivo, Drosophila melanogaster; settings: added to the food
Protocol: Drosophila Maintenance and Crosses: Drosophila melanogaster stocks/crosses were raised on standard cornmeal agar fly food (containing water, agar 17 g/L, sugar 54 g/L, yeast extract 26 g/L and nipagin 1.3 g/L) at 25° C. The stocks were either obtained from the Bloomington Stock Centre (Indiana University, USA), VDRC (Vienna Drosophila RNAi Collection, Vienna, Austria) or from the Exelixis Collection (Harvard Medical School) and rebalanced to generate eGFP-positive balancers. The stocks used were: w1118; dPANK/fbl1 hypomorph5,6; dPANK/fblnull (y[1] w[*]; Mi{y[+mDint2]=MIC}fbl[MI04001]/TM3, Sb[1] Ser[1], Bloomington 36941); dPPCDC mutant (w[1118], PBac{w[+mC]=WH}Ppcdc[f00839]/CyO, Bloomington 18377); UAS-dPPCDCRNAi line (VDRC 104495); dCOASY mutant (PBac{RB}Ppat-Dpck[e00492], Exelixis). The UAS-RNAi constructs were expressed ubiquitously using the Actin-Gal4 drivers (y[1] w[*]; P{w[+mC]=Act5C-GAL4}25FO1/CyO, y[+], Bloomington 4414). Heterozygous flies/larvae for the mutants and the Actin-Gal4 driver crossed to isogenic w1118 flies (Actin-Gal4/+) were used as controls for the RNAi-constructs expressing flies.
Drosophila Larval Collection and Larval Count Experiment: One week old flies (in the ratio 10 females and 5 males) were kept on 5 ml of standard fly food in a vial at 25° C. with or without various concentrations of CoA or Vitamin B5 (Sigma). […]

SMILES: CC(C)(COP(=O)(O)OP(=O)(O)OC[C@H]1O[C@@H](n2cnc3c(N)ncnc32)[C@H](O)[C@@H]1OP(=O)(O)O)[C@@H](O)C(=O)NCCC(=O)NCCS [CoA, Coenzyme A]
- rescue of HoPan-induced impaired histone acetylation (HEK293 cells): rescued
- rescue of HoPan-induced reduction in cell count (HEK293 cells): rescued
- intracellular CoA level (HEK293 cells; HPLC): restored the intracellular concentration of CoA
- rescue of HoPan-induced phenotype (larval lethality, eclosion rate) [1]: fully rescued
- conversion of CoA in serum [2]: converted to 4′-phosphopantetheine
- lifespan with CoA ([3]; homozygous dPANK/fbl1 mutants, from 20 days without): 40 days
- development with CoA ([3]; homozygous dPANK/fblnull mutants): extended development from the L2 stage to early pupal development
- egg production and fertility of females ([4]; dPPCDC RNAi expressing females): improved egg-production significantly; also recorded: produced a significant number of eggs; also recorded: produced viable eggs that resulted in offspring
- lifespan with CoA ([4]; dPPCDC RNAi expressing flies, CoA added to the food, from 10 days without): 30 days
- development with CoA ([4]; homozygous dPPCDC mutants, CoA added to the food): extended larval development to late pupal stage
- rescue of the phenotype [5]: did not result in a significant rescue
